Measured values from patent publication US4393178A, “Fast crystallizing polyester compositions” (priority 1979, dated 1983).
Where a name gives a salt, the structure may show the parent alone. Read-outs that look alike come from different tables or passages of the source.

Experiments:
[1] = Degradation constant K (melt degradation performance); format: physicochemical; set-up: unit not given here; conditions: 1% salt in PET, 2-roll mill 270 °C 5 min; molten state 290 °C
Experimental: The melt degradation performance is a measure of the extent of degradation under molten conditions. A convenient method of quantifying the performance is by measuring the "K value". A method for determining this value in the molten state using an Instron Capillary rheometer is given in a paper by J. Devaux et al in Makromol.
This method is carried out on samples prepared by reacting the salt with the polyester on a 2 roll-mill at a temperature above the melting point of the polyester for 5 minutes and then pressing the product obtained into a 2 mm thick sheet using the same temperature for 3 minutes before cooling to room temperature. The method is described for polyethylene terephthalate but can be readily adapted for other polyesters.
For polyethylene terephthalate the K value in the presence of salt should be less than 60.

[2] = Half-crystallisation time (t1/2), isothermal DSC; format: physicochemical
Experimental: A DSC 2 Perkin Elmer scanning calorimeter was used.
10 mg of the sample of polymer material are placed in a capsule and introduced into the apparatus, wherein the sample is quickly heated to a temperature of 290° C. at which it is maintained during 1 minute.
The molten polymer material is then very quickly cooled by means of liquid air (at a rate of 320° C. per minute) until the crystallisation temperature is reached.
The crystallisation isotherm is registered on a temperature-time graph and the peak appearing on the registered isotherm is taken as the half-crystallisation time (t1/2).

[3] = Crystallisation peak temperature on heating (Tn), DSC; format: physicochemical; conditions: for Tn(comp.)-Tn(PET) (16° C./min): 1% salt deposited from solution on PET chip; for Tn(comp.)-Tn(PET) (16° C./min) / Tn (16° C./min): pressed 280 °C 1 minute, heating rate 16 °C/minute; for Tn (16° C./min): 1% salt deposited from solution on PET; for Tn: 1% salt on PET I.V. 0.73 from solution; for Tn(composition)-Tn(polyester): PET I.V. 0.73 + 1% salt, 2-roll mill 300 °C 2 min, 10 °C/minute; for nucleating activity: in words
Experimental: In one such DSC technique the crystallisation peak temperature difference, Tn(composition)--Tn(polyester) is determined by measuring the crystallisation peak temperatures on heating for the composition in comparison with the polyester of the composition not containing the ionisable salt. The detailed procedure is as follows. Compositions were prepared from the polyester and the additive by mixing on a 2-roll mill at 300° C. for 2 minutes. The sample was taken from the mill and pressed into a film in a compression moulding machine. 10 mg samples of the composition were placed in a capsule, rapidly heated to 290° C. and maintained at that temperature for 1 minute. The capsule was then dropped into water to quench the polymer and prevent crystallisation. The sample was then placed in a Perkin Elmer DSC 2 machine and heated at a rate of 10° C./minute until reaching a temperature of 290° C. The crystallisation peak temperature observed on this heating cycle is recorded and compared with the value for the polyester not containing the additive.
Samples of polyethylene terephthalate (I.V. =0.73) containing 1% of the salts listed in Table 2 were prepared by compounding at 300° C. on a 2-roll mill for 2 minutes. The samples were evaluated to determine Tn(composition-Tn(polyester), the total number of end groups, the number of carboxylate groups and the number of hydroxyl and carboxyl groups.
The salts listed in Table 3 were deposited from solution on the surface of polyethylene terephthalate chip to give a concentration of 1% by weight of salt. The product was dried under vcuum at 96° C. for 3 hours. The compositions were pressed into film using a temperature of 280° C. for 1 minute. The DSC measurements were made after quenching from the melt to prevent crystallisation and using a heating rate of 16° C./minute.
1% by weight of the sodium salt of saccharin was deposited on the surface of granules of a polyethylene terephthalate homopolymer of I.V. =0.73 by evaporating an aqueous solution of the salt from the granules by drying at 96° C. under vacuum for 3 hours. The granules obtained were compression moulded into film by pressing at 280° C. for 60 second. The film was used for measurements of Tn at a heating rate of 16° C./minute.
The effect of the salts listed in Table 4 was determined by taking granules of a polymer of poly(ethylene terephthalate) homopolymer having an intrinsic viscosity of 0.73 and evaporating a solution of the salt in methanol or water from the surface of the granules by drying at 96° C. under vacuum for 3 hours. The proportions of polymer and solution used were such as to give a concentration of 1% of salt by weight of the final dry composition. The granules obtained were compression-moulded into film at 280° C. for various periods of time. The film was used for measurement of Tn as hereinbefore described.
Two samples of polyethylene terephthalate chip (I.V. =0.73) were coated from solution with 1% of the sodium salt of o-hydroxybenzoic acid and the disodium salt of the same acid respectively. After drying for 3 hours in a vacuum oven at 95° C. films were prepared by pressing the products for 1 minute at 280° C.

End group determination = format: physicochemical
Experimental: The numbers of hydroxyl and carboxyl groups were also determined according to the procedure given in this paper.
[…] The samples were evaluated to determine Tn(composition-Tn(polyester), the total number of end groups, the number of carboxylate groups and the number of hydroxyl and carboxyl groups.

[4] = ΔT = Tc(cooling) - Tn(heating), DSC; format: physicochemical; conditions: 1% salt in PET, 2-roll mill 270 °C 5 min; 10 °C/minute
Experimental: An alternative method for assessing the effectiveness of nucleation of an additive is to compare the difference between the value of the crystallisation peak on cooling (Tc) with that on heating (Tn) for a composition containing an ionisable salt. The value obtained from this comparison, Tc(cooling) -Tn(heating) is termed ΔT. […] Samples of polyester together with 1% of the salt under test were mixed in a 2-roll mill at 270° C. for 5 minutes. The sample produced was pressed into 2 mm thick sheets at 270° C. for 3 minutes and then cooled to room temperature. 10 mg of the sample was placed in a capsule and rapidly heated to 290° C. After maintaining this temperature for 1 minute the capsule was quenched in water. The crystallisation peak temperatures on heating (Tn) and cooling (Tc) were determined using heating and cooling rates of 10° C./minute on a Perkin Elmer DSC 2 machine.

[5] = Solubility parameter δ of the acid
[6] = 1% salt deposited from solution on PET chip, pressed 280 °C 1 minute
[7] = PET I.V. 0.73 + 1% salt, 2-roll mill 300 °C 2 min

## O=C([O-])Cc1ccccc1.[Na+] [sodium phenylacetate]
[1]
  K: less than 15
[2]
  t1/2 (sec) 110° C.: 55 s
  t1/2 (sec) 120° C.: 30 s

## O=C(O)c1ccc2ccccc2c1 [Sodium salt of 2-naphthoic acid]
[3]
  Tn(comp.)-Tn(PET) (16° C./min): 25 °C
  Tn (16° C./min): 120 °C
End group determination; [6]
  End Groups --COOH: 31 moles × 10^-6 g^-1
  End Groups --OH: 60 moles × 10^-6 g^-1
  End Groups Total from solution I.V.: 121 moles × 10^-6 g^-1

## O=C(O)c1ccccc1C(=O)O [Potassium hydrogen orthophthalate, reference compound]
[3]; time in press 30 sec at 280 °C
  Tn: 142.5 °C
[3]; time in press 60 sec at 280 °C
  Tn: 144.5 °C

## O=C(O)c1ccccc1[N+](=O)[O-] [ortho-nitrobenzoic acid]
[4]
  ΔT: 106 °C
[1]
  K: 20
[2]; 110 °C, 1% salt in PET, 2-roll mill 270 °C 5 min, after melting 1 minute at 290 °C
  t1/2 (sec) 110° C.: 65 s
[2]; 120 °C, 1% salt in PET, 2-roll mill 270 °C 5 min, after melting 1 minute at 290 °C
  t1/2 (sec) 120° C.: 45 s
[5]; product for the acid
  δ × pKH.sbsb.2O: 30

## O=[PH](O)C1CCCCC1 [Calcium cyclohexyl phosphinate]
[3]
  Tn (16° C./min): 129 °C

## O=C(O)c1ccc(-c2ccccc2)cc1 [Sodium salt of 4-biphenylcarboxylic acid]
[3]
  Tn(comp.)-Tn(PET) (16° C./min): 16 °C
  Tn (16° C./min): 131 °C
End group determination; [6]
  End Groups --COOH: 31 moles × 10^-6 g^-1
  End Groups --OH: 61 moles × 10^-6 g^-1
  End Groups Total from solution I.V.: 107 moles × 10^-6 g^-1

## O=C(O)c1ccccc1 [sodium benzoate, reference compound]
[3]; time in press 30 sec at 280 °C
  Tn: 115.5 °C
[3]; time in press 60 sec at 280 °C
  Tn: 117 °C
[3]
  Tn(composition)-Tn(polyester): 27 °C
End group determination; [7]
  % of carboxylate end group: 9.6%
  End Groups --COOH: 44 moles × 10^-6 g^-1
  End Groups --OH: 54 moles × 10^-6 g^-1
  End Groups Carboxylate: 13 moles × 10^-6 g^-1
  End Groups Total from solution I.V.: 136 moles × 10^-6 g^-1
[4]
  ΔT: 99 °C
[1]
  K: 88
[2]
  t1/2 (sec) 110° C.: 90 s
  t1/2 (sec) 120° C.: 45 s
[5]
  δ × pKH.sbsb.2O: 55

## O=C([O-])c1cccc2cccc(Br)c12.[Na+] [Sodium 8-bromo-1-naphthoate]
[3]
  Tn (16° C./min): 124 °C

## O=C([O-])c1ccc(C(=O)[O-])cc1.[Na+].[Na+] [Disodium terephthalate, reference compound]
[3]; time in press 30 sec at 280 °C
  Tn: 141 °C
[3]; time in press 60 sec at 280 °C
  Tn: 140 °C
[3]
  nucleating activity: only slight nucleating activity

## O=C([O-])c1cccc2ccccc12.[Na+]
[3]
  Tn (16° C./min): 111 °C

## O=C([O-])Cc1cccc2ccccc12.[Na+] [sodium 1-naphthylacetate]
[1]
  K: 30
[2]
  t1/2 (sec) 110° C.: 55 s
  t1/2 (sec) 120° C.: 30 s

## O=C([O-])c1c(Cl)cccc1Cl.[Na+] [sodium 2,6-dichlorobenzoate]
[3]
  Tn(composition)-Tn(polyester): 25 °C
End group determination; [7]
  % of carboxylate end group: 9.8%
  End Groups --COOH: 51 moles × 10^-6 g^-1
  End Groups --OH: 56 moles × 10^-6 g^-1
  End Groups Carboxylate: 15 moles × 10^-6 g^-1
  End Groups Total from solution I.V.: 153 moles × 10^-6 g^-1

## O=C([O-])c1ccc2cc(O)ccc2c1.[Na+] [Sodium 6-hydroxy-2-naphthoate]
[3]
  Tn (16° C./min): 116 °C

## COC(=O)c1ccc(C(=O)[O-])cc1.[Na+] [Sodium monomethyl terephthalate, reference compound]
[3]; time in press 60 sec at 280 °C
  Tn: 132 °C
[3]
  nucleating activity: only slight nucleating activity

## O=C(O)c1ccccc1-c1ccccc1 [Sodium salt of 2-biphenylcarboxylic acid]
[3]
  Tn(comp.)-Tn(PET) (16° C./min): 22 °C
  Tn (16° C./min): 121 °C
End group determination; [6]
  End Groups --COOH: 26 moles × 10^-6 g^-1
  End Groups --OH: 60 moles × 10^-6 g^-1
  End Groups Total from solution I.V.: 133 moles × 10^-6 g^-1

## O=[PH](O)c1ccccc1 [Sodium phenyl phosphinate]
[3]
  Tn (16° C./min): 117 °C
End group determination; [6]
  End Groups --COOH: 25 moles × 10^-6 g^-1
  End Groups --OH: 66 moles × 10^-6 g^-1

## COC(=O)c1ccc(C(=O)[O-])cc1.[K+] [Potassium monomethyl terephthalate, reference compound]
[3]; time in press 30 sec at 280 °C
  Tn: 138.5 °C
[3]; time in press 60 sec at 280 °C
  Tn: 137.5 °C
[3]
  nucleating activity: only slight nucleating activity

## CC(C)(C)c1ccc(C(=O)[O-])cc1.[Na+] [sodium para-tert-butylbenzoate, reference compound]
[3]
  Tn(composition)-Tn(polyester): 19 °C
End group determination; [7]
  % of carboxylate end group: 2.5%
  End Groups --COOH: 83 moles × 10^-6 g^-1
  End Groups --OH: 56 moles × 10^-6 g^-1
  End Groups Carboxylate: 4 moles × 10^-6 g^-1
  End Groups Total from solution I.V.: 157 moles × 10^-6 g^-1
[4]
  ΔT: 92.5 °C
[1]
  K: 109
[2]
  t1/2 (sec) 110° C.: 150 s
  t1/2 (sec) 120° C.: 55 s
[5]; product for the acid
  δ × pKH.sbsb.2O: 62

## O=C([O-])c1ccc(O)cc1.[Na+] [sodium p-hydroxybenzoate]
[3]
  Tn(composition)-Tn(polyester): 20 °C
End group determination; [7]
  % of carboxylate end group: 2.7%
  End Groups --COOH: 102 moles × 10^-6 g^-1
  End Groups --OH: 64 moles × 10^-6 g^-1
  End Groups Carboxylate: 4 moles × 10^-6 g^-1
  End Groups Total from solution I.V.: 148 moles × 10^-6 g^-1

## COc1ccc2cc(C(=O)[O-])ccc2c1.[Na+] [Sodium 6-methoxy-2-naphthoate]
[3]
  Tn (16° C./min): 119 °C

## O=C([O-])c1cc(O)cc(O)c1.[Na+] [sodium 3,5-dihydroxybenzoate]
[3]
  Tn(composition)-Tn(polyester): 7 °C
End group determination; [7]
  % of carboxylate end group: 0%
  End Groups Carboxylate: 0 moles × 10^-6 g^-1
  End Groups Total from solution I.V.: 138 moles × 10^-6 g^-1

## O=C([O-])c1c(O)cccc1O.[Na+] [sodium 2,6-dihydroxybenzoate]
[3]
  Tn(composition)-Tn(polyester): 24 °C
End group determination; [7]
  % of carboxylate end group: 3.9%
  End Groups --COOH: 55 moles × 10^-6 g^-1
  End Groups --OH: 69 moles × 10^-6 g^-1
  End Groups Carboxylate: 5 moles × 10^-6 g^-1
  End Groups Total from solution I.V.: 127 moles × 10^-6 g^-1

## O=C([O-])c1cccc2c(O)cccc12.[Na+] [Sodium 5-hydroxy-1-naphthoate]
[3]
  Tn (16° C./min): 132 °C
